Consider 45 compounds from BindingDB's records for patent US20250313563 (The Broad Institute, 2025).

The target of assay [1] is Glycogen synthase kinase-3 alpha (Homo sapiens, UniProt P49840). The assay is described as follows: TR-FRET Assay. The essentials: (§1)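 Compound was preincubated 30 min in assay buffer before the kinase reaction, which was quenched with EDTA. Phosphorylation was detected by TR-FRET after adding a solution of 40 nM streptavidin-d2 and 2 nM Tb-labelled anti-pSer641 antibody.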
Chain of Glycogen synthase kinase-3 alpha (P49840 whole entry): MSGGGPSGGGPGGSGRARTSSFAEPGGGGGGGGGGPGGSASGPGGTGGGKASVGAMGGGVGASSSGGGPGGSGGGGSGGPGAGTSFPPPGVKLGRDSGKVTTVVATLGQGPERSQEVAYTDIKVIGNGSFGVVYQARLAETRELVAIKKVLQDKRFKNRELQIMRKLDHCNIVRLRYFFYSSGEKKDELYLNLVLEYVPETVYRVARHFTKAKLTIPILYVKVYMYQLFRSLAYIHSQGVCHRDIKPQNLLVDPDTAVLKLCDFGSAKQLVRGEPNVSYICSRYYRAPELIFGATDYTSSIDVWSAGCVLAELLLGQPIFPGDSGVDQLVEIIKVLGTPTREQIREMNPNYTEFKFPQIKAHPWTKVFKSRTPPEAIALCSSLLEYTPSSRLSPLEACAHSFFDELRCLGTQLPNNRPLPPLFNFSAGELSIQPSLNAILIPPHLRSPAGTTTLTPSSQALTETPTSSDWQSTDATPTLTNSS
(Time-resolved FRET reads energy transfer from a long-lived donor to a nearby acceptor.)

Assay [2] deals with Glycogen synthase kinase-3 beta (Homo sapiens, UniProt P49841). The assay is described as follows: TR-FRET Assay. The essentials:
as §1

Values joined by “and” are separate entries in the source; they are usually repeats but may differ in a detail not shown here. Identical values can stand only once. Bounds are passed on as bounds.

Chain of Glycogen synthase kinase-3 beta (P49841 whole entry): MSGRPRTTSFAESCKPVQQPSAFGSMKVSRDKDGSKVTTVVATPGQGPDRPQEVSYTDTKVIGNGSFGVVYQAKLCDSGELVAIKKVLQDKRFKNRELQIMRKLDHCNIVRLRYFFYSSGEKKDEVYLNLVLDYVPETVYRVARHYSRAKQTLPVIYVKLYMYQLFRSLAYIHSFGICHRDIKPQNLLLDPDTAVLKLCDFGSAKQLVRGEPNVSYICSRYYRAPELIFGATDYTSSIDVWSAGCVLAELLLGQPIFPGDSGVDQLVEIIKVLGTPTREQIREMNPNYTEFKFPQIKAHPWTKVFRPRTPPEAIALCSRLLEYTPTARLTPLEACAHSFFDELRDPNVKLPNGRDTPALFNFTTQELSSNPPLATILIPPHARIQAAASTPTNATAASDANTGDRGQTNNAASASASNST

Regarding `CC[C@]1(c2cccc(S(C)(=O)=O)c2)C2=C(CC(C)(C)NC2=O)NC2N=NC(C)=C21` (stereo not given in full) [US20250313563, Compound 947811], the IC50 in assay [1] and in assay [2] was under 100 nM each time.
Regarding `CC[C@]1(c2cccc(-c3ccncc3C)c2)C2=C(CC(C)(C)NC2=O)NC2N=NC(C(F)(F)F)=C21` (stereo not given in full) [US20250313563, Compound 947812], the IC50 in assay [1] and in assay [2] was under 100 nM throughout.
In the case of `CC1(C)CC(=O)C2=C(C1)NC1=C(CN=N1)C21CN(c2cccnc2)C1` [US20250313563, Compound 947813], the IC50 in assay [1] and in assay [2] was 1000 to 5000 nM throughout.
On to `CC[C@@]1(c2cccc(S(C)(=O)=O)c2)C2=C(CC(C)(C)NC2=O)NC2N=NC(C)=C21` (stereo not given in full) [US20250313563, Compound 947815], for which the IC50 – broadly, the concentration at which inhibition is half-maximal – in assay [1] was 1000 to 5000 nM; in assay [2] it was over 5000 nM.
The corresponding values for `CC[C@]1(c2cccc(-c3ccnc(CCO)c3)c2)C2=CN=NC2NC2=C1C(=O)CC(C)(C)C2` (stereo not given in full) [US20250313563, Compound 947816] are 1000 to 5000 nM and over 5000 nM.
Take `CC[C@@]1(c2cccc(-c3cnn4c3CCCC4)c2)C2=C(CC(C)(C)NC2=O)NC2N=NC(C)=C21` (stereo not given in full) [US20250313563, Compound 947817]: the half-maximal inhibitory concentration (IC50) in assay [1] and in assay [2] was under 100 nM in each case.
Consider `CC[C@@]1(c2cccc(-c3cnn(C)c3C)c2)C2=C(CC(C)(C)NC2=O)NC2N=NC(C(F)(F)F)=C21` (stereo not given in full) [US20250313563, Compound 947819], for which the concentration for half-maximal inhibition (IC50) in assay [1] and in assay [2] was under 100 nM in each case.
For the compound `CC[C@@]1(c2cccc(-c3cncn3C)c2)C2=CN=NC2NC2=C1C(=O)NC(C)(C)C2` (stereo not given in full) [US20250313563, Compound 947820], the IC50 in assay [1] and in assay [2] was 100 to 1000 nM each time.
Consider `CC[C@@]1(c2cccc(-c3ccncc3F)c2)C2=C(CC(C)(C)NC2=O)NC2N=NC(C)=C21` (stereo not given in full) [US20250313563, Compound 947821], for which the IC50 in assay [1] and in assay [2] was under 100 nM each time.
Take `CC[C@@]1(c2cccc(-c3cc(C)ncc3F)c2)C2=CN=NC2NC2=C1C(=O)NC(C)(C)C2` (stereo not given in full) [US20250313563, Compound 947822]: the values for the half-maximal inhibitory concentration (IC50) in assay [1] and in assay [2] were 100 to 1000 nM and over 5000 nM, respectively.
The corresponding values for `CC[C@@]1(c2cccc(S(=O)(=O)C(C)C)c2)C2=CN=NC2NC2=C1C(=O)NC(C)(C)C2` (stereo not given in full) [US20250313563, Compound 947823] are 100 to 1000 nM and 1000 to 5000 nM.
For `CC[C@]1(c2cccc(-c3cnnn3C)c2)C2=CN=NC2NC2=C1C(=O)CC(C)(C)C2` (stereo not given in full) [US20250313563, Compound 947824] the same measures were 100 to 1000 nM and 1000 to 5000 nM.
Turning to `CC[C@]1(c2cccc(N(C)c3ncccn3)c2)C2=CN=NC2NC2=C1C(=O)NC(C)(C)C2` (stereo not given in full) [US20250313563, Compound 947825], the IC50 in assay [1] was 100 to 1000 nM; in assay [2] it was over 5000 nM.
The corresponding values for `CC[C@@]1(c2cccc(N(C)c3ncccn3)c2)C2=CN=NC2NC2=C1C(=O)NC(C)(C)C2` (stereo not given in full) [US20250313563, Compound 947826] are under 100 nM and under 100 nM.
For `CC1(C)CC2=C(C(=O)N1)C1(CCN(S(=O)(=O)c3cnn(C(C)(C)C)c3)CC1)C1=C(N=NC1)N2` [US20250313563, Compound 947835] the same measures were under 100 nM and 100 to 1000 nM.
In the case of `CCn1ccc(S(=O)(=O)N2CCC3(CC2)C2=CN=NC2NC2=C3C(=O)NC(C)(C)C2)n1` (stereo not given) [US20250313563, Compound 947836], the IC50 in assay [1] is under 100 nM; in assay [2], 100 to 1000 nM.
For `CCc1ncc(S(=O)(=O)N2CCC3(CC2)C2=CN=NC2NC2=C3C(=O)NC(C)(C)C2)s1` (stereo not given) [US20250313563, Compound 947837] the same measures were under 100 nM and under 100 nM.
The corresponding values for `CC1(C)CC(=O)C2=C(C1)NC1=C(CN=N1)[C@]21COC2(CN(C(=O)C(C)(F)F)C2)C1` [US20250313563, Compound 947838] are under 100 nM and under 100 nM.
For `CC1(C)CC(=O)C2=C(C1)NC1=C(CN=N1)[C@@]21COC2(CN(C(=O)C(C)(F)F)C2)C1` [US20250313563, Compound 947839] the same measures were under 100 nM and 100 to 1000 nM.
For `CCC1(c2cccc(-c3ccnc(C)c3)c2)C2=C(CC(C)(C)NC2=O)NC2N=NC(C(F)(F)F)=C21` (stereo not given) [US20250313563, Compound 947858], the IC50 in assay [1] and in assay [2] was under 100 nM throughout.
On to `CCC1(c2cccc(S(=O)(=O)C3CC3)c2)C2=C(CC(C)(C)NC2=O)NC2=C1C(C(F)(F)F)N=N2` (stereo not given) [US20250313563, Compound 947859], for which the IC50 in assay [1] and in assay [2] was under 100 nM each time.
For `CCC1(c2cccc(N3CCCC3)c2)C2=C(CC(C)(C)NC2=O)NC2N=NC(C(F)(F)F)=C21` (stereo not given) [US20250313563, Compound 947860], the IC50 is under 100 nM in assay [1]; < 100 nM and 100 to 1000 nM in assay [2].
For the compound `CCC1(c2cccc(N3CCCCC3)c2)C2=C(CC(C)(C)NC2=O)NC2N=NC(C(F)(F)F)=C21` (stereo not given) [US20250313563, Compound 947861], the IC50 in assay [1] is under 100 nM; in assay [2], < 100 nM and 100 to 1000 nM.
For `CCC1(c2cccc(-c3ccnc4c3CCC4)c2)C2=C(CC(C)(C)NC2=O)NC2N=NC(C(F)(F)F)=C21` (stereo not given) [US20250313563, Compound 947862], the IC50 in assay [1] is under 100 nM; in assay [2], < 100 nM and 100 to 1000 nM.
For the compound `CCC1(c2cccc(N3CCOCC3)c2)C2=C(CC(C)(C)NC2=O)NC2N=NC(C(F)(F)F)=C21` (stereo not given) [US20250313563, Compound 947863], the IC50 in assay [1] and in assay [2] was under 100 nM in each case.
Consider `CCC1(c2cccc(C(F)F)c2)C2=CN=NC2NC2=C1C(=O)NC(C)(C)C2` (stereo not given) [US20250313563, Compound 947864], for which the IC50 in assay [1] is under 100 nM; in assay [2] it was 100 to 1000 nM.
The corresponding values for `CCC1(c2cccc(C(F)F)c2)C2=C(CC(C)(C)NC2=O)NC2N=NC(C)=C21` (stereo not given) [US20250313563, Compound 947865] are under 100 nM and under 100 nM.
For `CCC1(c2cccc(-c3ccncc3F)c2)C2=C(CC(C)(C)NC2=O)NC2N=NC(C(F)(F)F)=C21` (stereo not given) [US20250313563, Compound 947866] the same measures were under 100 nM and under 100 nM.
For `CC[C@]1(c2ccc(OC(C)C)cc2)C2=C(CC(C)(C)CC2=O)NC2N=NC(C(F)(F)F)=C21` (stereo not given in full) [US20250313563, Compound 947868] the same measures were under 100 nM and under 100 nM.
For the compound `CC[C@@]1(c2cccc(-c3ccncc3F)c2)C2=CN=NC2NC2=C1C(=O)NC(C)(C)C2` (stereo not given in full) [US20250313563, Compound 947869], the IC50 in assay [1] was under 100 nM; in assay [2] it was < 100 nM and 1000 to 5000 nM.
With `CC[C@]1(c2cccc(-c3cnn(C)c3)c2)C2=C(CC(C)(C)NC2=O)NC2N=NC(C(F)(F)F)=C21` (stereo not given in full) [US20250313563, Compound 947871], the IC50 in assay [1] was under 100 nM; in assay [2] it was 100 to 1000 nM.
For `CC[C@@]1(c2cccc(OC(C)C)c2)C2=C(CC(C)(C)CC2=O)NC2N=NC(C(F)(F)F)=C21` (stereo not given in full) [US20250313563, Compound 947872] the same measures were 100 to 1000 nM and 1000 to 5000 nM.
For `CC[C@@]1(c2ccc(OC(C)C)cc2)C2=C(CC(C)(C)CC2=O)NC2N=NC(C(F)(F)F)=C21` (stereo not given in full) [US20250313563, Compound 947873] the same measures were 100 to 1000 nM and 100 to 1000 nM.
For `CC[C@]1(c2cccc(-c3ccncc3F)c2)C2=CN=NC2NC2=C1C(=O)NC(C)(C)C2` (stereo not given in full) [US20250313563, Compound 947874] the same measures were 100 to 1000 nM and 1000 to 5000 nM.
On to `CC[C@@]1(c2cccc(-c3cnn(C)c3)c2)C2=C(CC(C)(C)NC2=O)NC2N=NC(C(F)(F)F)=C21` (stereo not given in full) [US20250313563, Compound 947877], for which the IC50 is under 100 nM in assay [1]; < 100 nM and 100 to 1000 nM in assay [2].
For `Cc1csc(S(=O)(=O)N2CCC3(CC2)C2=C(N=NC2)NC2=C3C(=O)CC(C)(C)C2)n1` [US20250313563, Compound 947897], the IC50 in assay [1] and in assay [2] was under 100 nM throughout.
For the compound `Cn1cc(S(=O)(=O)N2CCC3(CC2)C2=C(N=NC2)NC2=C3C(=O)CC(C)(C)C2)nn1` [US20250313563, Compound 947898], the IC50 in assay [1] was under 100 nM; in assay [2] it was 100 to 1000 nM.
For `Cc1ncc(S(=O)(=O)N2CCC3(CC2)C2=C(N=NC2)NC2=C3C(=O)CC(C)(C)C2)s1` [US20250313563, Compound 947899] the same measures were under 100 nM and under 100 nM.
The corresponding values for `CC1(C)CC(=O)C2=C(C1)NC1=C(CN=N1)C21CCN(S(=O)(=O)c2ccc3c(c2)OCCO3)CC1` [US20250313563, Compound 947900] are under 100 nM and under 100 nM.
For `CC1(C)CC(=O)C2=C(C1)NC1=C(CN=N1)C21CCN(S(=O)(=O)c2cccc3ccncc23)CC1` [US20250313563, Compound 947901] the same measures were under 100 nM and under 100 nM.
`CC1(C)CC(=O)C2=C(C1)NC1=C(CN=N1)C21CCN(S(=O)(=O)c2ccc(C(F)(F)F)cn2)CC1` [US20250313563, Compound 947902]: the IC50 in assay [1] and in assay [2] was under 100 nM each time.
With `CC1(C)CC(=O)C2=C(C1)NC1=C(CN=N1)C21CCN(S(=O)(=O)c2cnn(CCF)c2)CC1` [US20250313563, Compound 947903], the IC50 in assay [1] and in assay [2] was under 100 nM each time.
As for `CC1(C)CC(=O)C2=C(C1)NC1=C(CN=N1)C21CCN(S(=O)(=O)c2cnn(-c3ccccc3)c2)CC1` [US20250313563, Compound 947904], the half-inhibitory concentration (IC50) in assay [1] and in assay [2] was under 100 nM each time.
`CC[C@]1(c2cccc(-c3ccnn3C)c2)C2=CN=NC2NC2=C1C(=O)N[C@](C)(COC)C2` (stereo not given in full) [US20250313563, Compound 947908]: the IC50 is 1000 to 5000 nM in assay [1] and over 5000 nM in assay [2].
The corresponding values for `CC[C@@]1(c2cccc(-c3ccncc3C)c2)C2=CN=NC2NC2=C1C(=O)N[C@@]1(CCCOC1)C2` (stereo not given in full) [US20250313563, Compound 947909] are 100 to 1000 nM and 1000 to 5000 nM.
